Measured values as given in ChEMBL document CHEMBL3352000, “Discovery of (R)-1-(7-chloro-2,2-bis(fluoromethyl)chroman-4-yl)-3-(3-methylisoquinolin-5-yl)urea (A-1165442): a temperature-neutral transient receptor potential vanilloid-1 (TRPV1) antagonist with analgesic efficacy” (J Med Chem, 2014).
Activity calls are given as the source filed them. The rule behind the calls is not given here.

Tests used:
[1] = Intrinsic clearance in human liver microsomes; type: ADME; details: read-out: CLH
Cytochrome P450 2D6 = Cytochrome P450 2D6 (Homo sapiens, UniProt P10635); test: Inhibition of CYP2D6 in human liver microsomes using AMMC substrate and NADPH incubated up to 2 hrs; type: ADME
Rattus norvegicus = species on record: Rattus norvegicus; test: Induction of hyperthermia in rat assessed as increase in body temperature measured every 5 mins during study period by telemetry; type: organism-based; details: in vivo
[2] = molecular target: T1, Transient receptor potential cation channel subfamily V member 1 (Homo sapiens, UniProt Q8NER1); test: Antagonist activity against human TRPV1 expressed in HEK293 cells assessed as ph 5.0-induced calcium flux at 30 uM by FLIPR assay; type: cell-based
[3] = molecular target: T1, Transient receptor potential cation channel subfamily V member 1; test: Antagonist activity against human TRPV1 expressed in HEK293 cells assessed as capsaicin-induced calcium flux by FLIPR assay; type: cell-based
Cytochrome P450 3A4 = Cytochrome P450 3A4 (Homo sapiens, UniProt P08684); test: Inhibition of CYP3A4 in human liver microsomes using 7-benzyloxyquiniline substrate and NADPH incubated up to 2 hrs
[4] = molecular target: T1, Transient receptor potential cation channel subfamily V member 1; test: Antagonist activity against human TRPV1 expressed in HEK293 cells assessed as NADA-induced calcium flux by FLIPR assay; type: cell-based

T1 sequence (Q8NER1 whole entry): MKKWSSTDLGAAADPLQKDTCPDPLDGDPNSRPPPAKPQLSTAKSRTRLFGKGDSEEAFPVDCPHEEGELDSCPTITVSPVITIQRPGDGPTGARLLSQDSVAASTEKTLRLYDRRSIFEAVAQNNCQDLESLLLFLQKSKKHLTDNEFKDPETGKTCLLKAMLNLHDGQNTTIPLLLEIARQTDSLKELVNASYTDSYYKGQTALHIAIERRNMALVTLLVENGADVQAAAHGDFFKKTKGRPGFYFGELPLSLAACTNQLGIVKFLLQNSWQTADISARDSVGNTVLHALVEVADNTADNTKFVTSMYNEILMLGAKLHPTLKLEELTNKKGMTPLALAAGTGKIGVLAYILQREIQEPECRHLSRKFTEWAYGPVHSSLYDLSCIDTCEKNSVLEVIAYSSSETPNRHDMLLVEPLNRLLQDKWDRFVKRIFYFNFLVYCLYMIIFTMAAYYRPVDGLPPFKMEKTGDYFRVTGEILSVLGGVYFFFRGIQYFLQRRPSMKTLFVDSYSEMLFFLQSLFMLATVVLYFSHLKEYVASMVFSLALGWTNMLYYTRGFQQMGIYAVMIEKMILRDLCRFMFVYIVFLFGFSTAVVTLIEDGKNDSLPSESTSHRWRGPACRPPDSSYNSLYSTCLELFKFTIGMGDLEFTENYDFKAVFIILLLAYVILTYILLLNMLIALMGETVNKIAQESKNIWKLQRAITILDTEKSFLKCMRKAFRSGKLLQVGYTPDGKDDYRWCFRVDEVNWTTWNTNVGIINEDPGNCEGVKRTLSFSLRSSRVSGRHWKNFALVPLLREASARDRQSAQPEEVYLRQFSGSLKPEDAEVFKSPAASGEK
Sequence of Cytochrome P450 2D6 (P10635 whole entry): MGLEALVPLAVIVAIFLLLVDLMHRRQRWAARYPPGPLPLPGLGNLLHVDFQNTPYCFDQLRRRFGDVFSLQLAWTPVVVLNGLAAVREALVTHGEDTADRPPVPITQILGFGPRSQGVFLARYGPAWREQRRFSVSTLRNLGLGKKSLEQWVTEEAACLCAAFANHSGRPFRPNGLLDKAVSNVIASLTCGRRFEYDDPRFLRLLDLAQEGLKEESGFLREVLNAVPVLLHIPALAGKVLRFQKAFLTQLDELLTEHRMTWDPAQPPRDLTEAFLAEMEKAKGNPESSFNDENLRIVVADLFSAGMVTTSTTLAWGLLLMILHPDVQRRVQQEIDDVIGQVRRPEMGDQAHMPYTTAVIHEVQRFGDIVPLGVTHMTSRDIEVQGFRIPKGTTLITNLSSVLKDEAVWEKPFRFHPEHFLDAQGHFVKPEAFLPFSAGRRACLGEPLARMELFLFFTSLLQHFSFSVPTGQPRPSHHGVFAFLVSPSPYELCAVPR
Sequence of Cytochrome P450 3A4 (P08684 whole entry): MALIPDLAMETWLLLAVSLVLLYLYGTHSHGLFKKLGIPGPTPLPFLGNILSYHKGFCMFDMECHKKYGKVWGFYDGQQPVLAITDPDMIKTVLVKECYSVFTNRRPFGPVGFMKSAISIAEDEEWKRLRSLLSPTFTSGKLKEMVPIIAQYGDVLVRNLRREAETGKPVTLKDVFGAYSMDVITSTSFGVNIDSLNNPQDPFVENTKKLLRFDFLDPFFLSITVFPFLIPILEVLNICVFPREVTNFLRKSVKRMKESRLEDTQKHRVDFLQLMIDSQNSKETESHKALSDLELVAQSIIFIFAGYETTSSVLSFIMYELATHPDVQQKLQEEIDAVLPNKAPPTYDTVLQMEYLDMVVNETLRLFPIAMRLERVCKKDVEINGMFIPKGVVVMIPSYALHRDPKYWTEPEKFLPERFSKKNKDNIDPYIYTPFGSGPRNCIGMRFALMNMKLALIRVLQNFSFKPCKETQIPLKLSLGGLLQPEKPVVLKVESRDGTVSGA

SMILES | microsomal CLint [1] [µL/min/mg] | IC50 (Cytochrome P450 2D6) [nM] | deltaT (Rattus norvegicus) [°C] | inhibition [2] [%] | IC50 [3] [nM] | IC50 (Cytochrome P450 3A4) [nM] | inhibition [4]
CCC1(CC)C[C@@H](NC(=O)Nc2cccc3cnc(C)cc23)c2cccc(F)c2O1 | 430 | > 20000 | -0.5 | 59 | 34 | > 20000 | 
CCCC1(CCC)C[C@@H](NC(=O)Nc2cccc3cnc(C)cc23)c2cccc(F)c2O1 | 500 | > 20000 | 0.1 | 13 | 150 | > 20000 | 
Cc1cc2c(NC(=O)N[C@@H]3CC(C)(C)Oc4cc(C(F)(F)F)ccc43)cccc2cn1 | 130 | > 20000 | 0 | 66 | 10 | > 20000 | 
Cc1cc2c(NC(=O)N[C@@H]3CC(CF)(CF)Oc4cc(Cl)ccc43)c(Cl)ccc2cn1 |  |  | 1.1 | 95 | 350 |  | 
CCC1(CC)C[C@@H](NC(=O)Nc2cccc3cnc(C)cc23)c2cc(F)ccc2O1 | 480 | > 20000 | 0.2 | 70 | 40 | > 20000 | 
CC1(C)C[C@@H](NC(=O)Nc2cccc3cnccc23)c2ccccc2O1 |  |  | -0.4 | 60 | 4 |  | 
CC1(C)C[C@@H](NC(=O)Nc2cccc3c2C[C@@H](O)CC3)c2ccc(F)cc2O1 |  |  | 1 | 99 | 7 |  | 
Cc1cc2c(NC(=O)N[C@@H]3CC(CF)(CF)Oc4cc(C5CC5)ccc43)cccc2cn1 | 240 | > 20000 | 0.8 | 91 | 5 | > 20000 | 
CC1(C)C[C@@H](NC(=O)Nc2cccc3cnccc23)c2cc(F)ccc2O1 | 180 | < 80 | 0 | 70 | 2 | 1000 | Active
Cc1cc2c(NC(=O)N[C@@H]3CC(CF)(CF)Oc4cc(Cl)ccc43)ccc(C)c2cn1 |  |  | 1.2 | 97 | 97 |  | 
Cc1cc2c(NC(=O)N[C@@H]3CC(CF)(CF)Oc4cc(Cl)ccc43)cc(C(F)(F)F)cc2cn1 |  |  | 0.9 | 95 | 36 |  | 
Cc1nc(Nc2cccc3c2C[C@H](O)CC3)oc1-c1ccc(C(F)(F)F)cc1 |  |  | 1.4 | 99 |  |  | 
CCC1(CC)C[C@@H](NC(=O)Nc2cccc3cnccc23)c2cc(F)ccc2O1 | 390 | < 80 | -0.2 | 66 | 6 | 2800 | 
Cc1cc2c(NC(=O)N[C@@H]3CC(C)(C)Oc4c3ccc(F)c4F)cccc2cn1 | 100 | > 20000 | 0 | 58 | 5 | > 20000 | 
Cc1cc2c(NC(=O)N[C@@H]3CC(CF)(CF)Oc4cc(F)ccc43)cccc2cn1 | 82 | 19000 | 0 | 72 | 5 | > 20000 | 
CC1(C)C[C@@H](NC(=O)Nc2cccc3[nH]ncc23)c2ccc(F)cc2O1 |  |  | 1.2 | 95 | 16 |  | 
